Measured values reported in patent US20230295086A1, “NOVEL PSILOCIN DERIVATIVES HAVING PRODRUG PROPERTIES” (COMPASS […], priority 2020, published 2023).
In brackets after ≈: the same amount, converted by molar mass. Marks after values point to notes of the source that are not given here.

Key:
[1] = Kinetic solubility assay (Example 11)
Method: Test and control compounds were diluted to 10 mM in DMSO and then further diluted 1 in 50 in 50 mM PB (pH 7.4) to a target concentration of 200 μM. Samples were vortexed for at least 2 minutes and then left to shake (800 rpm) at room temperature for 24 hours. Visual appearance was assessed before centrifugation and injection into a UPLC system to measure concentration. […] Each compound was tested in duplicate.

[2] = Shake flask Log D assay (Example 11); assay type: physicochemical; details: 1-Octanol / 100 mM PB pH 7.4, shake flask, LC-MS/MS; test compound as hydrochloride
Method: Test and control compounds were diluted to 10 mM in DMSO. 2 μl of each stock solution was aliquoted into tubes in duplicate. 1-Octanol saturated phosphate buffer (PB) (pH 7.4) was prepared by adding 1-Octanol into 100 ml of 100 mM PB (7.4). PB saturated 1-Octanol was prepared by adding 10 ml of 100 mM PB (7.4) into 100 ml of 1-Octanol. 149 μl of each solution was aliquoted into the corresponding tubes. These were then mixed vigorously for 2 minutes and shaken (800 rpm) at room temperature for one hour. The appropriate volume of buffer and 1-Octanol layer samples was aliquoted and diluted, before detection using LC-MS/MS.
Log D was calculated according to the following equation: […]

[3] = Kinetic turbidimetric solubility assay; details: 0.01 M PBS pH 7.4, 2% DMSO, room temperature, novel compounds as hemifumarate, psilocybin and psilocin free base; for solubility at 5 min: pH 7.4, aqueous buffer, kinetic from dmso stock
Method: Each test compound was diluted to 10 mM in DMSO. From this solution, six further dilutions of each test compound were prepared in DMSO (0.02, 0.1, 0.2, 1, 2, and 5 mM). […] Three replicate wells were designated per concentration. Following the dilutions in buffer, plates were incubated at room temperature shaking for 5 minutes before the absorbance was measured at 620 nm using a Molecular Devices SpectraMax384 UV detector. Nicardipine was tested as a control compound.
Solubility was estimated from the concentration of test compound that produced an increase in absorbance above a threshold of 0.005 absorbance units and was normalized to the DMSO blank.

Micro shake flask Log D = details: for Mean LogD: Octanol:PBS 1:9, pH 7.4, 10 μM, six replicates, novel compounds as hemifumarate; for logD at 2 h: pH 7.4
Method: 6 replicates of each test compound were incubated at 10 μM in a 1:9 ratio of Octanol: PBS at pH 7.4. Following a two hour incubation at room temperature shaking at 600 rpm, the incubation plate was centrifuged for 15 minutes to separate the layers and then two aliquots were removed from the PBS layer. The first was left neat and the second was diluted 10-fold to give dilute samples. Internal standards were added to both the calibration curve and the PBS incubation samples for analysis on LC MS/MS.
All 6 replicates of the neat samples were averaged to give one value for each, with the same calculation performed for the dilute sample values.

[4] = target: T1, serotonin 2A (5-HT2A) receptor (Mus musculus, UniProt P35363); experiment: Head twitch response (HTR) in mice; assay type: in vivo, male C57BL/6J mice; details: oral gavage 0.3 mg/kg
T1 construct: tissue Charles River UK; host or cells: whole living male C57BL/6J mice (in vivo, oral gavage)

[5] = Intake study: serum concentrations after oral ingestion by two volunteers; details: for c(Psilocin): study 1
Method: Two volunteers (1 M, 1 F) ingested about 1 mg of each one of P1 and M1 (Study 1) and P2 and M2 (Study 2) in gelatin capsules (exact amounts in Tables 3 and 4). One blood sample was collected prior to ingestion of the substances and served as a zero control. After ingestion samples were collected for about 8 h with increasing time intervals between sample taking (exact protocol in Tables 4 and 5). […] The obtained sera were transferred in plastic tubes and NaF (ca. 30 mg) and ascorbic acid (ca. 5 mg) were added to increase analytes stability.
200 μL serum were spiked with an internal standard solution (10 μL) and ACN (600 μL) was added to precipitate soluble proteins. Before mixing thoroughly ammonium formate (10 M, 200 μL) was added separate the aqueous from the organic phase. After centrifugation (6 min, 4,000×g), 500 μL of the organic phase were transferred into another vial and evaporated to dryness at 40° C. under a gentle stream of nitrogen. Samples were reconstituted in 100 μL mobile phase (A/B, 90/10, v/v) and used for analysis. For quantification a blank sample and a six point calibration (0.5, 1.0, 2.0, 5.0, 10, 20 ng/mL) in calf serum were prepared as described above.
The HPLC-MS system consisted of a Nexera X2 UHPLC system composed of three LC-30AD pumps, a DGU-30A3 degasser, a SIL-30AC autosampler, a CTO-10AS column oven and a CBM-20A controller (Shimadzu, Duisburg, Germany) coupled to a QTRAP 6500plus triple quadrupole linear ion trap mass spectrometer equipped with a TurbolonSpray Interface (Sciex, Darmstadt, Germany). The MS was operated in positive electrospray ionization mode. Data acquisition was performed in scheduled multiple reaction monitoring mode (detection window: 60 s) using Analyst software (version 1.7). MS parameters (declustering potential, entrance potential, collision energy, and collision cell exit potential) were optimized for all substances to obtain the best possible signal intensities (summary of the MRM parameters are given in Table 5). Ion source temperature and ion source voltage were set to 550° C. and +5500 V, respectively. Dwell time was 20 ms for every MRM transition. Curtain gas (N2) pressure was 35 psi, ion source gas 1 and 2 (compressed air) pressure were 50 and 60 psi, respectively, and collision gas (N2) pressure was set to “high.” Chromatographic separation was performed on a Kinetex® biphenyl column (100×2.1 mm, 2.6 μm particle size, Phenomenex, Aschaffenburg, Germany) with a corresponding guard column (SecurityGuard™ ULTRA Cartridges UHPLC Biphenyl for 2.1 mm ID columns, Phenomenex, Aschaffenburg, Germany). The autosampler and the column oven temperature were set to 10° C. and 40° C., respectively. The injection volume was 10 μL.

[6] = serum, oral intake of about 1 mg prodrug, mean of 2 volunteers

T1 sequence (P35363 whole entry): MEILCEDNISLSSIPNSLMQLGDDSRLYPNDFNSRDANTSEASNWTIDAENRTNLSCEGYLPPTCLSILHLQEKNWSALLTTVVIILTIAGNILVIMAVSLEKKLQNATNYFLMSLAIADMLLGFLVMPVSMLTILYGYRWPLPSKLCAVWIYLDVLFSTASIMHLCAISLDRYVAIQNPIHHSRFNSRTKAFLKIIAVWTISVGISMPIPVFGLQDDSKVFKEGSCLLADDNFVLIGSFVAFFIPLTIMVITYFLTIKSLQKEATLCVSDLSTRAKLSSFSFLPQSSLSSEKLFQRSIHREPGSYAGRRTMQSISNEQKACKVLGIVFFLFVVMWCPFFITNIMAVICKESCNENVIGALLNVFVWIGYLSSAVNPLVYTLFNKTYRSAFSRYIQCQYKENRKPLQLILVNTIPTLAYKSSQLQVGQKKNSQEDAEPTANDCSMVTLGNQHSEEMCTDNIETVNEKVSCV

NC(=O)N1c2ccccc2C=Cc2ccccc21 [Carbamazepine]
Detected concentration ([1]; 50 mM PB pH 7.4, target 200 μM, 24 hours shaking at room temperature, UPLC, test compound as hydrochloride): 180 µM
solubility at 24 h ([1]; pH 7.4, aqueous buffer, kinetic from dmso stock): > 180 µM

CN(C)CCCN1c2ccccc2Sc2ccc(Cl)cc21 [Chlorpromazine]
logD at 1 h [2]: 3.28

CCOC(=O)Oc1cccc2[nH]cc(CCN(C)CC)c12 [N-methyl-N-ethyltryptamine-4-yl ethylcarbonate]
Solubility [3]: >200 µM
Mean LogD (Micro shake flask Log D): 1.01
Mean number of head twitches 15-30 mins ([4]; N = 8): 3.5
Mean number of head twitches 30-45 mins ([4]; N = 8): 2.38
Mean number of head twitches 45-60 mins ([4]; N = 8): 0.38

CC(C)(C)NCC(O)COc1cccc2c1CC(O)C(O)C2 (stereo not shown) [Nadolol]
logD at 1 h [2]: -1.33

COC(=O)C1=C(C)NC(C)=C(C(=O)OCCN(C)Cc2ccccc2)C1c1cccc([N+](=O)[O-])c1 (stereo not shown) [Nicardipine]
solubility at 5 min [3]: 24.4 µM (≈ 11.7 µg/mL)

CN(C)CCc1c[nH]c2cccc(O)c12 [Psilocin, psilocin]
solubility at 5 min [3]: > 200 µM
logD at 2 h (Micro shake flask Log D): 1.01

CCOC(=O)Oc1cccc2[nH]cc(CCN(C)C)c12 [Psilocin-4-yl-ethylcarbonate, psilocin-4-yl ethyl carbonate]
Mean LogD (Micro shake flask Log D): 1.22
Parent prodrug itself in serum (not detected, LOD) ([5]; serum after oral ingestion of about 1 mg): < 0.05 ng/mL
Cmax of psilocin [5, 6]: 1.1 ± 0.5 ng/mL
Tmax of psilocin [5, 6]: 0.933 ± 0.217 h
elimination constant kel of psilocin [5, 6]: 0.0039 min⁻¹
elimination half life t1/2 of psilocin [5, 6]: 3.18 h
c(Psilocin) ([5]; serum, test person A, oral P1 1.03 mg salt, 15 min, below LOQ, extrapolated): 0.15* ng/mL
c(Psilocin) ([5]; serum, test person A, oral P1 1.03 mg salt, 21 min): 0.34 ng/mL
c(Psilocin) ([5]; serum, test person A, oral P1 1.03 mg salt, 31 min): 0.51 ng/mL
c(Psilocin) ([5]; serum, test person A, oral P1 1.03 mg salt, 49 min): 0.82 ng/mL
c(Psilocin) ([5]; serum, test person A, oral P1 1.03 mg salt, 65 min): 1.45 ng/mL
c(Psilocin) ([5]; serum, test person A, oral P1 1.03 mg salt, 87 min): 1.02 ng/mL
c(Psilocin) ([5]; serum, test person A, oral P1 1.03 mg salt, 120 min): 1.02 ng/mL
c(Psilocin) ([5]; serum, test person A, oral P1 1.03 mg salt, 155 min): 0.59 ng/mL
c(Psilocin) ([5]; serum, test person A, oral P1 1.03 mg salt, 165 min): 0.98 ng/mL
c(Psilocin) ([5]; serum, test person A, oral P1 1.03 mg salt, 240 min): 0.58 ng/mL
c(Psilocin) ([5]; serum, test person A, oral P1 1.03 mg salt, 338 min): 0.34 ng/mL
c(Psilocin) ([5]; serum, test person A, oral P1 1.03 mg salt, 371 min): 0.33 ng/mL
c(Psilocin) ([5]; serum, test person A, oral P1 1.03 mg salt, 424 min, below LOQ, extrapolated): 0.29* ng/mL
c(Psilocin) ([5]; serum, test person A, oral P1 1.03 mg salt, 486 min, below LOQ, extrapolated): 0.26* ng/mL
c(Psilocin) ([5]; serum, test person B, oral P1 0.99 mg salt, 6 min, below LOQ, extrapolated): 0.22* ng/mL
c(Psilocin) ([5]; serum, test person B, oral P1 0.99 mg salt, 13 min, below LOQ, extrapolated): 0.25* ng/mL
c(Psilocin) ([5]; serum, test person B, oral P1 0.99 mg salt, 20 min): 0.38 ng/mL
c(Psilocin) ([5]; serum, test person B, oral P1 0.99 mg salt, 30 min): 0.60 ng/mL
c(Psilocin) ([5]; serum, test person B, oral P1 0.99 mg salt, 47 min): 0.76 ng/mL
c(Psilocin) ([5]; serum, test person B, oral P1 0.99 mg salt, 64 min): 0.54 ng/mL
c(Psilocin) ([5]; serum, test person B, oral P1 0.99 mg salt, 83 min): 0.60 ng/mL
c(Psilocin) ([5]; serum, test person B, oral P1 0.99 mg salt, 114 min): 0.43 ng/mL
c(Psilocin) ([5]; serum, test person B, oral P1 0.99 mg salt, 165 min): 0.37 ng/mL
c(Psilocin) ([5]; serum, test person B, oral P1 0.99 mg salt, 232 min): 0.32 ng/mL
c(Psilocin) ([5]; serum, test person B, oral P1 0.99 mg salt, 322 min, below LOQ, extrapolated): 0.25* ng/mL
c(Psilocin) ([5]; serum, test person B, oral P1 0.99 mg salt, 369 min, below LOQ, extrapolated): 0.24* ng/mL
c(Psilocin) ([5]; serum, test person B, oral P1 0.99 mg salt, 432 min, below LOQ, extrapolated): 0.22* ng/mL
Mean number of head twitches 0-15 mins ([4]; N = 8): 3.5
Mean number of head twitches 15-30 mins ([4]; N = 8): 3.13
Mean number of head twitches 30-45 mins ([4]; N = 8): 3.38
Mean number of head twitches 45-60 mins ([4]; N = 8): 1.13
Mean number of head twitches Total 0-60 mins ([4]; N = 8, 0.3 mg/kg): 10.84

CN(C)CCc1c[nH]c2cccc(OP(=O)(O)O)c12 [Psilocybin, psilocybin, reference compound]
solubility at 5 min [3]: ≥ 100 µM
logD at 2 h (Micro shake flask Log D): 0.57
